“Also recorded” adds a separate entry of the source.
System: primary human PBMCs
Test: Toxicity to primary human PBMCs
Type: cell-based
Conditions: PBMCs 25k per well, 0.23 pM to 1 uM, 12 hr, compared to Jurkat
Method: Structurally related negative control ePA and PB are non-toxic in all cell types in the current concentrate range. PBMCs (25k per well), Jurkat (10k per well). Compound concentration was increased from […] to 1 uM, 4× per gradient, PBMCs using primary B cell media from Wesley (heat deactivated), and Jurkat using normal RPMI media and incubated for 12 hr.
FIG. 3. Initial SAR studies: Assessing activity of PAL functionalized PTMA analogs. […] (A) PA and Ph-PA show less toxic to healthy PBMCs compared to Jurkat cells. […] (B) Immunoblot of caspase-3 in Jurkat and PBMCs with indicated conditions.
• 1) Portimine A and its functional analogs show stereo-selective acute toxicity in cancer cells (FIG. 1). […] (B) Structure of portimine related analogs: phenyl-portimine A (Ph-PA, 36) and epi-portimine A (ePA, 38). Structure of fully functionalized portimine A-based epimeric probe pair: portimine A-diazirine-alkyne (PA-DA, 35-2) and epi-portimine A-diazirine-alkyne (ePA-DA, 35-1). (C) Cell viability analysis of portimine A and analogs. Jurkat cells were treated with increasing concentrations of portimine A and analogs for 24 hours. All presented data as mean of biological replicated experiments (n=3). […] Jurkat cells were treated with portimine A or analogs for 12 hours at 10 nM. […] Structurally related negative control ePA and PB are non-toxic in all cell types in the current concentrate range. PBMCs (25k per well), Jurkat (10k per well). […] Cell cycle analysis in Jurkat cells (FIG. 2). Jurkat cells were treated with 10 nM of indicated compounds for 24 hours, and propodium iodide was used to identify different stages of cells by flow cytometry. […] (A) PA and Ph-PA show less toxic to healthy PBMCs compared to Jurkat cells. […] (B) Immunoblot of caspase-3 in Jurkat and PBMCs with indicated conditions. […] (A) Pharmacokinetic studies of mouse intraperitoneal (i.p.) and oral (p.o.) administration for portimine (n=3). […] Impact of PA [0.3 or 1 mg/kg intraperitoneally] on MC38 tumor growth in WT mice (n=6). (C) Kaplan-Myer survival curve of WT MC38 tumor-bearing mice (n=6) after treatment with PA as described in (D). Mice were euthanized when tumor area exceeded 2000 mm^3. Statistical analysis was performed using ANOVA analysis followed by multiple comparisons test, * p≤0.05. Treatment condition: Jurkat (60 M per condition); PA-DA/ePA-DA concentration: 0.5 uM, PA or ePA: 5 uM; Incubate with probe with or without competitors (PA, ePA) for 30 min; UV irradiated for 20 min. (0.5 uM PA-DA add a no-UV condition), Standard pulldown & biotin-enrichment and western blot analysis (Elute condition: 2× sample buffer+500 uM biotin, boil for 20 mins); Primary antibody NMD3 (ProteinTech, 1:150), Actin (BioRad, 1:10000). […] Chemical proteomic profiling with PA-DA in Jurkat cells (A, B, C, G) and HCC1806 cells (D, E, F, H) show NMD3 is the primary target candidate of portimine A. Volcano plot in panels A and D show protein competition in cells treated with active photoaffinity probe PA-DA (500 nM) and DMSO or the active competitor portimine A (PA, […]), dotted lines indicate threshold of fold change <4, p-value>0.05. […] (I, J) Confirmation of PA-DA engagement of NMD3 in Jurkat and HCC1806 cells. […] Treatment condition: Jurkat (5M per well). Portimine A concentration: 2 nM-1000 nM; In total treat cell for 12 hours. […] Protein degradation of p53, Mcl1, Bid, Bim, Noxa can be rescued by MG132 or Epoxomicin. (B) NMD3 mRNA increased after PA treatment, but not ePA control compound. […]

| SMILES | toxicity to healthy / primary human PBMCs | toxicity to healthy / primary human PBMCs (listed as Portimine A) |
| --- | --- | --- |
| CC1C[C@@H](O)C(=O)[C@H]2O[C@]3(CC[C@@H]1O3)CC(O)C1=NCC[C@@]13CCC(c1ccccc1)=C[C@H]23 (some centres unmarked) [Ph-PA, phenyl-portimine A] | substantially less toxic |  |
| C=CC1=C[C@@H]2[C@@H]3OC4(CC[C@H](O4)C(C)C[C@@H](O)C3=O)CC(=O)C3=NCC[C@@]32CC1 (some centres unmarked) [PB, portimine B] | non-toxic; also recorded: non-toxicity |  |
| C=CC1=C[C@@H]2[C@@H]3O[C@]4(CC[C@H](O4)C(C)C[C@@H](O)C3=O)CC(O)C3=NCC[C@@]32CC1 (some centres unmarked) [PA, portimine A] | substantially less toxic | non-toxic; also recorded: do not induce apoptosis or affect cell viability |
| C=CC1=C[C@@H]2[C@@H]3O[C@]4(CC[C@H](O4)C(C)C[C@@H](O)C3=O)C[C@@H](O)C3=NCC[C@@]32CC1 (stereo partly drawn) [ePA, epi-portimine A] | non-toxic; also recorded: non-toxicity |  |

Reference: patent US20260242390A1, “TOTAL SYNTHESES OF PORTIMINE A AND ANALOGUES THEREOF AS SMALL MOLECULE MODULATORS OF NMD3” (priority 2023, published 2026)
